Measured values reported in patent US20230348496A1, “PESTICIDALLY ACTIVE HETEROCYCLIC DERIVATIVES WITH SULFUR CONTAINING SUBSTITUENTS” (SYNGENTA CROP PROTECTION AG, priority 2020, published 2023).

Key:
Assay type in all cases: in vivo
[1] = tested on: Carpocapsa (Cydia) Pomonella (Codling Moth); assay: Activity against Carpocapsa (Cydia) pomonella (codling moth), larvicide, feeding/contact; settings: 336 h, application rate 12.5 ppm, sprayed diet cubes, L1 larvae, 14 days after infestation
Procedure: Example B10: Activity Against Carpocapsa (Cydia) Pomonella (Codling Moth) Larvicide, Feeding/Contact
Diet cubes coated with paraffin were sprayed with diluted test solutions in an application chamber. After drying off the treated cubes (10 replicates) were infested with 1 L1 larvae. Samples were incubated at 26-27° C. and checked 14 days after infestation for mortality and growth inhibition.

[2] = tested on: Spodoptera littoralis (Egyptian Cotton Leaf Worm); assay: Activity against Spodoptera littoralis (Egyptian cotton leaf worm); settings: foliar, 72 h, application rate 200 ppm, sprayed cotton leaf discs, L1 larvae, 3 days after infestation
Procedure: Example B3: Activity Against Spodoptera littoralis (Egyptian Cotton Leaf Worm)
Cotton leaf discs were placed onto agar in 24-well microtiter plates and sprayed with aqueous test solutions prepared from 10′000 ppm DMSO stock solutions. After drying the leaf discs were infested with five L1 larvae. The samples were assessed for mortality, anti-feeding effect, and growth inhibition in comparison to untreated samples 3 days after infestation. Control of Spodoptera littoralis by a test sample is given when at least one of the categories mortality, anti-feedant effect, and growth inhibition is higher than the untreated sample.

[3] = tested on: Diabrotica Balteata (Corn Root Worm); assay: Activity against Diabrotica balteata (corn root worm), sprayed maize sprouts; settings: 96 h, application rate 200 ppm, L2 larvae on sprayed maize sprouts, 4 days after infestation, read-out: effect in at least one of the two categories (mortality or growth inhibition)
Procedure: Example B1: Activity Against Diabrotica Balteata (Corn Root Worm)
Maize sprouts placed onto an agar layer in 24-well microtiter plates were treated with aqueous test solutions prepared from 10′000 ppm DMSO stock solutions by spraying. After drying, the plates were infested with L2 larvae (6 to 10 per well). The samples were assessed for mortality and growth inhibition in comparison to untreated samples 4 days after infestation.

[4] = tested on: Chilo suppressalis (Striped Rice Stemborer); assay: Activity against Chilo suppressalis (striped rice stemborer); settings: 144 h, application rate 200 ppm, artificial diet, L2 larvae, 6 days after infestation
Procedure: Example B5: Activity Against Chilo suppressalis (Striped Rice Stemborer)
24-well microtiter plates with artificial diet were treated with aqueous test solutions prepared from 10′000 ppm DMSO stock solutions by pipetting. After drying, the plates were infested with L2 larvae (6-8 per well). The samples were assessed for mortality, anti-feeding effect, and growth inhibition in comparison to untreated samples 6 days after infestation. Control of Chilo suppressalis by a test sample is given when at least one of the categories mortality, anti-feedant effect, and growth inhibition is higher than the untreated sample.

[5] = tested on: Bemisia tabaci (Cotton White Fly); assay: Activity against Bemisia tabaci (cotton white fly); settings: foliar, 144 h, application rate 200 ppm, sprayed cotton leaf discs, adult white flies, 6 days after incubation
Procedure: Example B4: Activity Against Bemisia tabaci (Cotton White Fly)
Cotton leaf discs were placed on agar in 24-well microtiter plates and sprayed with aqueous test solutions prepared from 10′000 ppm DMSO stock solutions. After drying the leaf discs were infested with adult white flies. The samples were checked for mortality 6 days after incubation.

[6] = tested on: Plutella xylostella (Diamond Back Moth); assay: Activity against Plutella xylostella (diamond back moth); settings: 192 h, application rate 200 ppm, artificial diet, Plutella eggs, 8 days after infestation, read-out: effect in at least one of the two categories (mortality or growth inhibition)
Procedure: Example B8: Activity Against Plutella xylostella (Diamond Back Moth)
24-well microtiter plates with artificial diet were treated with aqueous test solutions prepared from 10′000 ppm DMSO stock solutions by pipetting. After drying, Plutella eggs were pipetted through a plastic stencil onto a gel blotting paper and the plate was closed with it. The samples were assessed for mortality and growth inhibition in comparison to untreated samples 8 days after infestation.

[7] = tested on: Myzus persicae (Green Peach Aphid); assay: Activity against Myzus persicae (green peach aphid), feeding/contact activity; settings: foliar, 144 h, application rate 200 ppm, sprayed sunflower leaf discs, aphid population of mixed ages, 6 days after infestation
Procedure: Example B2: Activity Against Myzus persicae (Green Peach Aphid) Feeding/Contact Activity
Sunflower leaf discs were placed onto agar in a 24-well microtiter plate and sprayed with aqueous test solutions prepared from 10′000 ppm DMSO stock solutions. After drying, the leaf discs were infested with an aphid population of mixed ages. The samples were assessed for mortality 6 days after infestation.

[8] = tested on: Frankliniella occidentalis (Western Flower Thrips); assay: Activity against Frankliniella occidentalis (western flower thrips); settings: foliar, 168 h, application rate 200 ppm, sprayed sunflower leaf discs, population of mixed ages, 7 days after infestation
Procedure: Example B7: Activity Against Frankliniella occidentalis (Western Flower Thrips)
Sunflower leaf discs were placed on agar in 24-well microtiter plates and sprayed with aqueous test solutions prepared from […] stock solutions. After drying the leaf discs were infested with a Frankliniella population of mixed ages. The samples were assessed for mortality 7 days after infestation.

[9] = tested on: Nilaparvata lugens (Brown Plant Hopper); assay: Activity against Nilaparvata lugens (brown plant hopper), larvicide, systemic into water; settings: 168 h, application rate 12.5 ppm, rice plants in nutritive solution, N3 nymphs, 7 days after infestation
Procedure: Example B9: Activity Against Nilaparvata lugens (Brown Plant Hopper) Larvicide, Systemic into Water
Rice plants cultivated in a nutritive solution were treated with the diluted test solutions into nourishing cultivation system. 1 day after application plants were infested with ˜20 N3 nymphs. 7 days after infestation samples were assessed for mortality and growth regulation.

[10] = tested on: Euschistus heros (Neotropical Brown Stink Bug); assay: Activity against Euschistus heros (neotropical brown stink bug); settings: 120 h, application rate 200 ppm, sprayed soybean leaves, N2 nymphs, 5 days after infestation, read-out: effect in at least one of the two categories (mortality or growth inhibition)
Procedure: Example B6: Activity Against Euschistus heros (Neotropical Brown Stink Bug)
Soybean leaves on agar in 24-well microtiter plates were sprayed with aqueous test solutions prepared from 10′000 ppm DMSO stock solutions. After drying the leaves were infested with N2 nymphs. The samples were assessed for mortality and growth inhibition in comparison to untreated samples 5 days after infestation.

[11] = tested on: Myzus persicae (Green Peach Aphid); assay: Myzus persicae (green peach aphid), systemic activity; settings: 144 h, test rate 24 ppm, roots of infested pea seedlings in test solution, 6 days
Procedure: Example B11: Myzus persicae (Green Peach Aphid). Systemic Activity
Roots of pea seedlings infested with an aphid population of mixed ages were placed directly into aqueous test solutions prepared from 10′000 DMSO stock solutions. The samples were assessed for mortality 6 days after placing seedlings into test solutions.

CCS(=O)(=O)c1c(N2Cc3ccc(OC(F)(F)F)cc3C2=O)nn2ccc(C(F)(F)F)cc12 [Compound P2, 2-[3-ethylsulfonyl-5-(trifluoromethyl)pyrazolo[1,5-a]pyridin-2-yl]-6-(trifluoromethoxy)isoindolin-1-one]
≥ 80%: mortality at 12.5 ppm [1] | percent control (mortality, anti-feedant effect or growth inhibition) at 200 ppm [2] | percent effect (mortality or growth inhibition) at 200 ppm [3] | percent control (mortality, anti-feedant effect or growth inhibition) at 200 ppm [4] | mortality at 200 ppm [5] | percent effect (mortality or growth inhibition) at 200 ppm [6] | mortality at 200 ppm [7]

CCS(=O)(=O)c1c(N2Cc3ccc(S(=O)(=O)C(F)(F)F)cc3C2=O)nn2ccc(C(F)(F)F)cc12 [Compound P3, 2-[3-ethylsulfonyl-5-(trifluoromethyl)pyrazolo[1,5-a]pyridin-2-yl]-6-(trifluoromethylsulfonyl)isoindolin-1-one]
≥ 80%: mortality at 12.5 ppm [1] | percent control (mortality, anti-feedant effect or growth inhibition) at 200 ppm [2] | percent effect (mortality or growth inhibition) at 200 ppm [3] | percent control (mortality, anti-feedant effect or growth inhibition) at 200 ppm [4] | mortality at 200 ppm [8] | percent effect (mortality or growth inhibition) at 200 ppm [6] | mortality at 200 ppm [7]

CCS(=O)(=O)c1c(N2Cc3ncc(C(F)(F)F)cc3C2=O)nn2cc(C3CC3)ccc12 [Compound P1, 6-(6-cyclopropyl-3-ethylsulfonyl-pyrazolo[1,5-a]pyridin-2-yl)-3-(trifluoromethyl)-7H-pyrrolo[3,4-b]pyridin-5-one]
≥ 80%: mortality at 12.5 ppm [1] | percent control (mortality, anti-feedant effect or growth inhibition) at 200 ppm [2] | mortality at 12.5 ppm [9] | percent effect (mortality or growth inhibition) at 200 ppm [3] | percent control (mortality, anti-feedant effect or growth inhibition) at 200 ppm [4] | percent effect (mortality or growth inhibition) at 200 ppm [10] | percent effect (mortality or growth inhibition) at 200 ppm [6] | mortality at 200 ppm [7]

CCS(=O)(=O)c1c(N2Cc3ncc(C(F)(F)F)cc3C2=O)nn2cc(C3(C#N)CC3)ccc12 [Compound P4, 1-[3-ethylsulfonyl-2-[5-oxo-3-(trifluoromethyl)-7H-pyrrolo[3,4-b]pyridin-6-yl]pyrazolo[1,5-a]pyridin-6-yl]cyclopropanecarbonitrile]
≥ 80%: mortality at 12.5 ppm [1] | percent control (mortality, anti-feedant effect or growth inhibition) at 200 ppm [2] | mortality at 12.5 ppm [9] | percent effect (mortality or growth inhibition) at 200 ppm [3] | percent control (mortality, anti-feedant effect or growth inhibition) at 200 ppm [4] | mortality at 200 ppm [8] | percent effect (mortality or growth inhibition) at 200 ppm [10] | percent effect (mortality or growth inhibition) at 200 ppm [6] | mortality at 200 ppm [7]

CCS(=O)(=O)c1c(N2Cc3ncc(C(F)(F)F)cc3C2=O)nn2cc(C(F)(F)F)ccc12 [Compound P6, 6-[3-ethylsulfonyl-6-(trifluoromethyl)pyrazolo[1,5-a]pyridin-2-yl]-3-(trifluoromethyl)-7H-pyrrolo[3,4-b]pyridin-5-one]
≥ 80%: mortality at 12.5 ppm [1] | percent control (mortality, anti-feedant effect or growth inhibition) at 200 ppm [2] | mortality at 12.5 ppm [9] | percent effect (mortality or growth inhibition) at 200 ppm [3] | percent control (mortality, anti-feedant effect or growth inhibition) at 200 ppm [4] | percent effect (mortality or growth inhibition) at 200 ppm [6] | mortality at 200 ppm [7]

CCS(=O)(=O)c1c(N2Cc3ncc(C(F)(F)F)cc3C2=O)nn2cc(C(C)(C)C#N)ccc12 [Compound P7, 2-[3-ethylsulfonyl-2-[5-oxo-3-(trifluoromethyl)-7H-pyrrolo[3,4-b]pyridin-6-yl]pyrazolo[1,5-a]pyridin-6-yl]-2-methyl-propanenitrile]
≥ 80%: percent control (mortality, anti-feedant effect or growth inhibition) at 200 ppm [2] | percent effect (mortality or growth inhibition) at 200 ppm [3] | percent control (mortality, anti-feedant effect or growth inhibition) at 200 ppm [4] | mortality at 200 ppm [8] | percent effect (mortality or growth inhibition) at 200 ppm [10] | percent effect (mortality or growth inhibition) at 200 ppm [6] | mortality at 200 ppm [7] | mortality at 24 ppm [11]

CCS(=O)(=O)c1c(N2Cc3ncc(C(F)(F)F)cc3C2=O)nn2ccc(C(F)(F)F)cc12 [Compound P5, 6-[3-ethylsulfonyl-5-(trifluoromethyl)pyrazolo[1,5-a]pyridin-2-yl]-3-(trifluoromethyl)-7H-pyrrolo[3,4-b]pyridin-5-one]
≥ 80%: mortality at 12.5 ppm [1] | percent control (mortality, anti-feedant effect or growth inhibition) at 200 ppm [2] | mortality at 12.5 ppm [9] | percent effect (mortality or growth inhibition) at 200 ppm [3] | percent control (mortality, anti-feedant effect or growth inhibition) at 200 ppm [4] | percent effect (mortality or growth inhibition) at 200 ppm [10] | percent effect (mortality or growth inhibition) at 200 ppm [6]
